# Earlier results as cited in EP0890570A2, “Tertiary alkyl primary amines and process for preparing the same” (ROHM AND HAAS COMPANY, priority 1997, dated 1999).
# Settings: conventional comparison amines, stated without source or method
row,pKa,SMILES
1,10,CC(C)CCCCCCN [iso-nonylamine]
2,10,CCCCCCCCCN [n-nonylamine]
